From patent US8404738B2 (Hoffmann-La Roche Inc., priority 2011, dated 2013)

Key:
recombinant human HDAC8 = target: T1, recombinant human HDAC8 (Homo sapiens, UniProt Q9BY41); experiment: HDAC8 inhibition: recombinant HDAC8 fluorometric assay; assay type: biochemical; details: recombinant human HDAC8, substrate Ac-Arg-His-Lys-Lys(ε-acetyl)-AMC; read-out: HDAC8 IC50
T1 construct: made in house; host or cells: insect cells
T1 sequence (Q9BY41 1-377): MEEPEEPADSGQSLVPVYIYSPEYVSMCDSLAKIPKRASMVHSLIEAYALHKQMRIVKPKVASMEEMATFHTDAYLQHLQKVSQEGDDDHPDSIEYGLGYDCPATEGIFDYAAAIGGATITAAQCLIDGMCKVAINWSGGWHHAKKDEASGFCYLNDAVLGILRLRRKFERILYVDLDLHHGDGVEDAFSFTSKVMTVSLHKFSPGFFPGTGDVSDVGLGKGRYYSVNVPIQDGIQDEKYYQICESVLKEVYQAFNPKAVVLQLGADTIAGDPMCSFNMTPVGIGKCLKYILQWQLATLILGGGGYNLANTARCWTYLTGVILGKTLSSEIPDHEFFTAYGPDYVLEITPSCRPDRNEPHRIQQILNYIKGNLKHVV
Experimental: HDAC8 Inhibition by Novel Compounds: Recombinant HDAC8 Fluorometric Assay.
A competitive inhibitory assay of HDAC8 was carried out by using recombinant HDAC8 and a commercial substrate Ac-Arg-His-Lys-Lys(ε-acetyl)-AMC.
Compounds were tested for their ability to inhibit histone deacetylase 8 using an in vitro deacetylation assay. The enzyme source for this assay was recombinant human HDAC8 protein expressed and purified from insect cells. […] The substrate consisted of a commercial product Ac-Arg-His-Lys-Lys(ε-acetyl)-AMC (substrate is available from Cayman Chemical). […] 1 μl of half-log diluted compounds were added into wells and incubated for 15 min at rt. After that, 8 μl of substrate solution was transferred to the wells and incubated for 30 min at rt. After deacetylation of the substrate by incubation with HDAC8 enzyme, subsequent exposure to a developing reagent produced a fluorophore that was directly proportional to the level of deacetylation. […] The fluorescence signal was measured by a FlexStation3 plate reader (excitation wave length 340-360 nm; emission wave length 440-465 nm). The HDAC8 IC50 was calculated after normalization and curve fitting using XLfit4.0 software. Inhibition %=[Mean(top)−signal(sample)]×100/[Mean(top)−Mean(bottom)].

HDAC6 = target: T2, HDAC6 (Homo sapiens, UniProt Q9UBN7); experiment: Tubulin acetylation cytoblot assay (A549 cells); assay type: cell-based; details: 17-18 h incubation, tubulin acetylation as marker of HDAC6 inhibition, read-out: Tub-Ac EC50
T2 construct: endogenous in cells; host or cells: A549 cells
T2 sequence (Q9UBN7 1-1215): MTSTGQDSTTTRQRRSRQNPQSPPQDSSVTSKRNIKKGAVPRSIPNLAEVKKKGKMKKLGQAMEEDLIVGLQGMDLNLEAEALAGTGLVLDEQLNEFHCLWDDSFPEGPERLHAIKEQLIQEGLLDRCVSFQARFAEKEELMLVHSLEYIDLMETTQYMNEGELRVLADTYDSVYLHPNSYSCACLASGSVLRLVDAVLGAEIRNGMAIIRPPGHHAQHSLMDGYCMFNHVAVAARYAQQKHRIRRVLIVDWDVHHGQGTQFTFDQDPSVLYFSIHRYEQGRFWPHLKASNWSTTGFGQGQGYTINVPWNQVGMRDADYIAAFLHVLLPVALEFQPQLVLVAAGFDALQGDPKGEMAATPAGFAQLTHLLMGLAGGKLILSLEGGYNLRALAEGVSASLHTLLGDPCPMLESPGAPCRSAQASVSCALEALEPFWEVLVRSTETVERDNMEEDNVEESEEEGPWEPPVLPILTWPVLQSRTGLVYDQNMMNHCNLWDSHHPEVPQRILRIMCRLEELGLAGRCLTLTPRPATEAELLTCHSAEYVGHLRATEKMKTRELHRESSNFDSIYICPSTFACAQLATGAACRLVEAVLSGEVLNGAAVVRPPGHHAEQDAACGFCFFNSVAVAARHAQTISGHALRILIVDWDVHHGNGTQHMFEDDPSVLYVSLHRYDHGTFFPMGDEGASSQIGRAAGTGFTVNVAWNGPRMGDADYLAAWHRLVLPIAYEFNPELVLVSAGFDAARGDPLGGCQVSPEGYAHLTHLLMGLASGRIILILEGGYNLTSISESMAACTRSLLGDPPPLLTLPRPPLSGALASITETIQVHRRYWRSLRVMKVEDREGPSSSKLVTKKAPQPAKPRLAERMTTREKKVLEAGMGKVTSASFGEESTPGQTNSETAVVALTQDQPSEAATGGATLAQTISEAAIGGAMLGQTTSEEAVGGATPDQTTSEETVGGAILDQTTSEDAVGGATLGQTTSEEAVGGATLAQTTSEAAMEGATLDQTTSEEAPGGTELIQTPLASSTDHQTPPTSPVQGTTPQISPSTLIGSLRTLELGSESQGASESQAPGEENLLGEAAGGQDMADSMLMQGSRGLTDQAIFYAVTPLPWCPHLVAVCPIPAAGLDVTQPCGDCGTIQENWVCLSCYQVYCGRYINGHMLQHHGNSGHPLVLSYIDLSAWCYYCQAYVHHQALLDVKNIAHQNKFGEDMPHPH
Experimental: Tubulin Acetylation Induction by Novel Compounds: Tubulin Acetylation Cytoblot Assay.
Tubulin acetylation is a PD marker for HDAC6 inhibition. The extent of tubulin acetylation represents the inhibitory effect on HDAC6.
Novel compounds were tested for their ability to inhibit HDAC6 using a cell-based deacetylation assay. Tubulin acetylation was detected by the anti-acetylated tubulin antibody (Sigma) and horse radish peroxidase (HRP) conjugated secondary antibody (KangChen Bio. Tech.). […] 20 μl of diluted compound solution was transferred to the cell culture plate and incubated for 17-18 h. After medium removal and fixation by formaldehyde (3.7% paraformaldehyde in TBS), the cells in the plates were treated with 180 μl of −20° C. MeOH and incubated for 5 min at rt. The cell lysis was incubated with 75 μl of primary anti-acetylated tubulin antibody and secondary HRP conjugated antibody solution (1:750 anti-acetylated tubulin, 1:750 HRP conjugated anti-mouse IgG in antibody dilution buffer not containing sodium azide) for 4 h at 4° C. By adding the HRP substrate, enhanced chemiluminescence (ECL) reagent (GE Healthcare) generated luminescence corresponding to the level of tubulin acetylation. So that 75 μl of ECL was added into the wells and the luminescence from each well was immediately quantified by the plate reader. Based on the luminescence reading, the Tub-Ac EC50s against HDAC6 of the tested compounds were calculated by plotting the curve with XLfit4.0 software. Inhibition %=[signal(sample)−Mean(bottom)]×100/[Mean(top)−Mean(bottom)]

[1] = system: p21 promoter-luciferase construct; experiment: p21 reporter gene induction (HeLa cells, p21 promoter-luciferase construct); details: for p21 RP3: relative gene level of p21 compared to MS275 at 3 μM; for p21 RP10: relative level of p21 compared to MS275 at 10 μM; for p21 RP30: relative level of p21 compared to MS275 at 30 μM;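 for all read-outs here: transfected HeLa cells exposed to compound for 15 h, luciferase luminescence read from lysates, p21 promoter lacks p53 site, proxy for cellular HDAC1/2/3 inhibition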

| Structure (SMILES) | IC50 (recombinant human HDAC8) | EC50 (HDAC6) | p21 RP3 [1] | p21 RP10 [1] | p21 RP30 [1] |
| --- | --- | --- | --- | --- | --- |
| O=C(NO)c1ccc(NC2CCN(c3ccccc3F)C2=O)cc1 (centres unmarked) [Example 2, 4-[1-(2-Fluoro-phenyl)-2-oxo-pyrrolidin-3-ylamino]-N-hydroxy-benzamide] | 840 nM | 4020 nM | 0.33 | 0.26 | 0.46 |
| O=C(NO)c1ccc(NC2CCN(c3cccc(F)c3)C2=O)cc1 (centres unmarked) [Example 3, 4-[1-(3-Fluoro-phenyl)-2-oxo-pyrrolidin-3-ylamino]-N-hydroxy-benzamide] | 1090 nM | 1560 nM | 0.18 | 0.06 | 0.08 |
| O=C(NO)c1ccc(NC2CCN(c3ccc(F)cc3)C2=O)cc1 (centres unmarked) [Example 4, 4-[1-(4-Fluoro-phenyl)-2-oxo-pyrrolidin-3-ylamino]-N-hydroxy-benzamide] | 890 nM | 3890 nM | 0.43 | 0.31 | 0.48 |
| O=C(NO)c1ccc(NC2CCN(c3ccccc3Cl)C2=O)cc1 (centres unmarked) [Example 5, 4-[1-(2-Chloro-phenyl)-2-oxo-pyrrolidin-3-ylamino]-N-hydroxy-benzamide] | 370 nM | 6670 nM | −0.01 | 0.06 | 0.08 |
| O=C(NO)c1ccc(NC2CCN(c3cccc(Cl)c3)C2=O)cc1 (centres unmarked) [Example 6, 4-[1-(3-Chloro-phenyl)-2-oxo-pyrrolidin-3-ylamino]-N-hydroxy-benzamide] | 720 nM | 2820 nM | 0.03 | 0.15 | 0.15 |
| COc1cccc(N2CCC(Nc3ccc(C(=O)NO)cc3)C2=O)c1 (centres unmarked) [Example 8, N-Hydroxy-4-[1-(3-methoxy-phenyl)-2-oxo-pyrrolidin-3-ylamino]-benzamide] | 590 nM | 4120 nM | 0.09 | 0.15 | 0.29 |
| CC(C)Oc1cccc(N2CCC(Nc3ccc(C(=O)NO)cc3)C2=O)c1 (centres unmarked) [Example 9, N-Hydroxy-4-[1-(3-isopropoxy-phenyl)-2-oxo-pyrrolidin-3-ylamino]-benzamide] | 1300 nM | 1730 nM | 0.24 | 0.13 | 0.23 |
| CC(C)Oc1ccc(N2CCC(Nc3ccc(C(=O)NO)cc3)C2=O)cc1 (centres unmarked) [Example 10, N-Hydroxy-4-[1-(4-isopropoxy-phenyl)-2-oxo-pyrrolidin-3-ylamino]-benzamide] | 1800 nM | 2150 nM | 0.07 | 0.05 | 0.05 |
| CS(=O)(=O)c1ccc(N2CCC(Nc3ccc(C(=O)NO)cc3)C2=O)cc1 (centres unmarked) [Example 17, N-Hydroxy-4-[1-(4-methanesulfonyl-phenyl)-2-oxo-pyrrolidin-3-ylamino]-benzamide] | 1190 nM | 11900 nM | 0.00 | 0.02 | 0.02 |
| N#Cc1ccc(N2CCC(Nc3ccc(C(=O)NO)cc3)C2=O)cc1 (centres unmarked) [Example 19, 4-[1-(4-Cyano-phenyl)-2-oxo-pyrrolidin-3-ylamino]-N-hydroxy-benzamide] | 1050 nM | 3140 nM | 0.46 | 0.00 | −0.03 |

More lines, main results first:

| IC50 (recombinant human HDAC8) | EC50 (HDAC6) | Structure (SMILES) | p21 RP3 [1] | p21 RP10 [1] | p21 RP30 [1] |
| --- | --- | --- | --- | --- | --- |
| 2230 nM | 8310 nM | O=C(NO)c1ccc(NC2CCN(c3cccc(C(F)(F)F)c3)C2=O)cc1 (centres unmarked) [Example 11, N-Hydroxy-4-[2-oxo-1-(3-trifluoromethyl-phenyl)-pyrrolidin-3-ylamino]-benzamide] | 0.39 | 0.08 | 0.04 |
| 740 nM | 1530 nM | CC(C)c1cccc(N2CCC(Nc3ccc(C(=O)NO)cc3)C2=O)c1 (centres unmarked) [Example 13, N-Hydroxy-4-[1-(3-isopropyl-phenyl)-2-oxo-pyrrolidin-3-ylamino]-benzamide] | 0.29 | 0.19 | 0.09 |
| 3180 nM | 2610 nM | CC(C)c1ccc(N2CCC(Nc3ccc(C(=O)NO)cc3)C2=O)cc1 (centres unmarked) [Example 14, N-Hydroxy-4-[1-(4-isopropyl-phenyl)-2-oxo-pyrrolidin-3-ylamino]-benzamide] | 0.13 | 0.07 | 0.06 |
| 1870 nM | 1060 nM | CC(C)(C)c1ccc(N2CCC(Nc3ccc(C(=O)NO)cc3)C2=O)cc1 (centres unmarked) [Example 16, 4-[1-(4-tert-Butyl-phenyl)-2-oxo-pyrrolidin-3-ylamino]-N-hydroxy-benzamide] | 0.17 | 0.12 | −0.03 |
| 1620 nM | 4310 nM | N#Cc1cccc(N2CCC(Nc3ccc(C(=O)NO)cc3)C2=O)c1 (centres unmarked) [Example 18, 4-[1-(3-Cyano-phenyl)-2-oxo-pyrrolidin-3-ylamino]-N-hydroxy-benzamide] | 0.61 | 0.02 | −0.01 |
| 1210 nM | 960 nM | O=C(NO)c1ccc(NC2CCN(c3ccc(F)c(Cl)c3)C2=O)cc1 (centres unmarked) [Example 20, 4-[1-(3-Chloro-4-fluoro-phenyl)-2-oxo-pyrrolidin-3-ylamino]-N-hydroxy-benzamide] | 0.37 | 0.10 | 0.12 |
